For this test, the target named is T1, SIRT1 (Homo sapiens, UniProt Q96EB6).
T1 sequence (Q96EB6 1-747): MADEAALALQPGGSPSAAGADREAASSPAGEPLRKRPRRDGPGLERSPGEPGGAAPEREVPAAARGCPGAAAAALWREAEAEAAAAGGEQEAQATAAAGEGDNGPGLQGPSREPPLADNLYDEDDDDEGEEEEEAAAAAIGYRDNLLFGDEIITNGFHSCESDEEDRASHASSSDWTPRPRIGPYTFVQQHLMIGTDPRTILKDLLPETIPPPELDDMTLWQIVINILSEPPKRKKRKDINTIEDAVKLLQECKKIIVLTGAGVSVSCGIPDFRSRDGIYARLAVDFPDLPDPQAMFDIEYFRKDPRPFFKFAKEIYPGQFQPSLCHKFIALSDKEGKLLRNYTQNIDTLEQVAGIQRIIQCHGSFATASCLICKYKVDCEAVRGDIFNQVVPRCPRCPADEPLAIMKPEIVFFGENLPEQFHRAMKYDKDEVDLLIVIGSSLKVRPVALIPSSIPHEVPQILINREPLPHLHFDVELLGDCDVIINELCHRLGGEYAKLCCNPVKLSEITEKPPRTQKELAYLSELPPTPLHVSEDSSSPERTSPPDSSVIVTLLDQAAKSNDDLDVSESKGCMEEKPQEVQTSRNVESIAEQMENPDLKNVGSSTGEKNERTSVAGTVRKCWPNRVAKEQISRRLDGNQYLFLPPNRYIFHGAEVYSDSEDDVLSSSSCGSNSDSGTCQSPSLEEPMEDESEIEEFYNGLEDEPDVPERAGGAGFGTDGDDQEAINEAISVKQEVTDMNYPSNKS
Briefly: Trp mass spectrometry assay of SIRT1 activation (Ac-R-H-K-K(Ac)-W-NH2 peptide). Format: biochemical. To be noted: for Emax: 25 min, read-out: TRP MAX RESP (percent maximum fold activation). The procedure, abridged:
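Mass spectrometry read-out (OAADPR formed, or deacetylated Trp peptide) after a 25 min NAD-dependent deacetylation by E. coli-expressed His-SIRT1, stopped with formic acid.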

Where [1] appears, read: Trp peptide 0.5 μM, 120 μM βNAD+, 10 nM SIRT1, 25 min at 25° C., relative to control (100%).
Setting [2] is: Trp peptide 0.5 μM, 120 μM βNAD+, 10 nM SIRT1, 25 min at 25° C.

Read-outs that look alike come from different tables or passages of the source.

For `Cc1ncc(-c2ccnc(NC(=O)N3c4nc(C(=O)N[C@H](C)C(F)(F)F)c(Cl)cc4N4CC[C@H]3C4)c2)o1` [Example 281, (4S)-8-chloro-N5-(4-(2-methyloxazol-5-yl)pyridin-2-yl)-N7-((R)-1,1,1-trifluoropropan-2-yl)-3,4-dihydro-1,4-methanopyrido[2,3-b][1,4]diazepine-5,7(2H)-dicarboxamide], under setting [1], the Emax is > 150%. Under setting [2], the “TRP Activity (EC1.5, concentration of test compound that results in 150% activation of SIRT1)” value is reported as “B (EC1.5 1-25 μM)”.
In the same order, the values of `C[C@@H](NC(=O)c1nc2c(cc1Cl)N1CC[C@@H](C1)N2C(=O)Nc1cc(-c2cnco2)ccn1)C(F)(F)F` [Example 282, (4S)-8-chloro-N5-(4-(oxazol-5-yl)pyridin-2-yl)-N7-((R)-1,1,1-trifluoropropan-2-yl)-3,4-dihydro-1,4-methanopyrido[2,3-b][1,4]diazepine-5,7(2H)-dicarboxamide] are > 150% and “A (EC1.5<1 μM)”.
The matching figures for `C[C@@H](NC(=O)c1nc2c(cc1F)N1CC[C@@H](C1)N2C(=O)Nc1cc(OC[C@H](O)CO)ccn1)C(F)(F)F` [Example 283, (4S)—N5-(4-((R)-2,3-dihydroxypropoxy)pyridin-2-yl)-8-fluoro-N7-((R)-1,1,1-trifluoropropan-2-yl)-3,4-dihydro-1,4-methanopyrido[2,3-b][1,4]diazepine-5,7(2H)-dicarboxamide]: > 150% and “A (EC1.5<1 μM)”.
The matching figures for `COc1cc2c(nc1C(=O)NCC(F)(F)F)N(C(=O)Nc1ccccn1)[C@H]1CCN2C1` [Example 284, (4S)-8-methoxy-N5-(pyridin-2-yl)-N7-(2,2,2-trifluoroethyl)-3,4-dihydro-1,4-methanopyrido[2,3-b][1,4]diazepine-5,7(2H)-dicarboxamide]: > 150% and “A (EC1.5<1 μM)”.
Consider `O=C(NCC(F)(F)F)c1nc2c(cc1O)N1CC[C@@H](C1)N2C(=O)Nc1ccccn1` [Example 285, (4S)-8-hydroxy-N5-(pyridin-2-yl)-N7-(2,2,2-trifluoroethyl)-3,4-dihydro-1,4-methanopyrido[2,3-b][1,4]diazepine-5,7(2H)-dicarboxamide], for which the Emax under setting [1] is > 150%. For the same molecule, under setting [2], the “TRP Activity (EC1.5, concentration of test compound that results in 150% activation of SIRT1)” value was “A (EC1.5<1 μM)”.
For `COc1cc(C(=O)NCC(F)(F)F)nc2c1N1CC[C@@H](C1)N2C(=O)Nc1ccccn1` [Example 286, (4S)-9-methoxy-N5-(pyridin-2-yl)-N7-(2,2,2-trifluoroethyl)-3,4-dihydro-1,4-methanopyrido[2,3-b][1,4]diazepine-5,7(2H)-dicarboxamide], the Emax was > 150%. Under setting [2], the “TRP Activity (EC1.5, concentration of test compound that results in 150% activation of SIRT1)” value is listed as “A (EC1.5<1 μM)”.
On to `Cc1cc(C(=O)NCC(F)(F)F)nc2c1N1CC[C@@H](C1)N2C(=O)Nc1ccccn1` [Example 287, (4S)-9-methyl-N5-(pyridin-2-yl)-N7-(2,2,2-trifluoroethyl)-3,4-dihydro-1,4-methanopyrido[2,3-b][1,4]diazepine-5,7(2H)-dicarboxamide], for which, under setting [1], the Emax was > 150%. For the same molecule, the “TRP Activity (EC1.5, concentration of test compound that results in 150% activation of SIRT1)” value under setting [2] is given as “A (EC1.5<1 μM)”.
The matching figures for `Cc1cc(C(=O)N[C@H](C)C(F)(F)F)nc2c1N1CC[C@@H](C1)N2C(=O)Nc1ccccn1` [Example 288, (4S)-9-methyl-N5-(pyridin-2-yl)-N7-((R)-1,1,1-trifluoropropan-2-yl)-3,4-dihydro-1,4-methanopyrido[2,3-b][1,4]diazepine-5,7(2H)-dicarboxamide]: > 150% and “A (EC1.5<1 μM)”.
The matching figures for `Cc1ccc2c(NC(=O)N3c4nc(C(=O)N[C@H](C)C(F)(F)F)cc(C)c4N4CC[C@H]3C4)n[nH]c2n1` [Example 289, (4S)-9-methyl-N5-(6-methyl-1H-pyrazolo[3,4-b]pyridin-3-yl)-N7-((R)-1,1,1-trifluoropropan-2-yl)-3,4-dihydro-1,4-methanopyrido[2,3-b][1,4]diazepine-5,7(2H)-dicarboxamide]: > 150% and “A (EC1.5<1 μM)”.
The matching figures for `Cc1cc(C(=O)N[C@H](C)C(F)(F)F)nc2c1N1CC[C@@H](C1)N2C(=O)Nc1ccc(OC[C@@H](O)CO)cn1` [Example 290, (4S)—N5-(5-((S)-2,3-dihydroxypropoxy)pyridin-2-yl)-9-methyl-N7-((R)-1,1,1-trifluoropropan-2-yl)-3,4-dihydro-1,4-methanopyrido[2,3-b][1,4]diazepine-5,7(2H)-dicarboxamide]: > 150% and “A (EC1.5<1 μM)”.
For the molecule `Cc1cc2c(nc1C(=O)N[C@H](C)C(F)(F)F)N(C(=O)Nc1cc(OC[C@H](O)CO)ccn1)[C@H]1CCN2C1` [Example 291, (4S)—N5-(4-((R)-2,3-dihydroxypropoxy)pyridin-2-yl)-8-methyl-N7-((R)-1,1,1-trifluoropropan-2-yl)-3,4-dihydro-1,4-methanopyrido[2,3-b][1,4]diazepine-5,7(2H)-dicarboxamide], under setting [1], the Emax is < 150%. For the same molecule, the “TRP Activity (EC1.5, concentration of test compound that results in 150% activation of SIRT1)” value under setting [2] is “A (EC1.5<1 μM)”.
The matching figures for `Cc1cc(C(=O)N[C@H](C)C(F)(F)F)nc2c1N1CC[C@@H](C1)N2C(=O)Nc1cc(OC[C@H](O)CO)ccn1` [Example 292, (4S)—N5-(4-((R)-2,3-dihydroxypropoxy)pyridin-2-yl)-9-methyl-N7-((R)-1,1,1-trifluoropropan-2-yl)-3,4-dihydro-1,4-methanopyrido[2,3-b][1,4]diazepine-5,7(2H)-dicarboxamide]: < 150% and “A (EC1.5<1 μM)”.
In the same order, the values of `Cc1ncc(-c2ccnc(NC(=O)N3c4nc(C(=O)NCC(F)(F)F)cc(C)c4N4CC[C@H]3C4)c2)o1` [Example 293, (4S)-9-methyl-N5-(4-(2-methyloxazol-5-yl)pyridin-2-yl)-N7-(2,2,2-trifluoroethyl)-3,4-dihydro-1,4-methanopyrido[2,3-b][1,4]diazepine-5,7(2H)-dicarboxamide] are < 150% and “A (EC1.5<1 μM)”.
For the molecule `Cc1cc(C(=O)NCC(F)(F)F)nc2c1N1CC[C@@H](C1)N2C(=O)Nc1cc(OC[C@H](O)CO)ccn1` [Example 294, (4S)—N5-(4-((R)-2,3-dihydroxypropoxy)pyridin-2-yl)-9-methyl-N7-(2,2,2-trifluoroethyl)-3,4-dihydro-1,4-methanopyrido[2,3-b][1,4]diazepine-5,7(2H)-dicarboxamide], the Emax under setting [1] is < 150%. Besides, under setting [2], the “TRP Activity (EC1.5, concentration of test compound that results in 150% activation of SIRT1)” value was “A (EC1.5<1 μM)”.
In the same order, the values of `O=C(NCC(F)(F)F)c1ccc2c(n1)N(C(=O)Nc1ccccn1)[C@H]1CC[N+]2([O-])C1` [Example 295, (4S)-5-(pyridin-2-ylcarbamoyl)-7-((2,2,2-trifluoroethyl)carbamoyl)-2,3,4,5-tetrahydro-1H-1,4-methanopyrido[2,3-b][1,4]diazepine 1-oxide] are > 150% and “B (EC1.5 1-25 μM)”.
The matching figures for `C[C@@H](NC(=O)c1ccc2c(n1)N(C(=O)Nc1cc(-c3cnn[nH]3)ccn1)[C@H]1CCN2C1)C(F)(F)F` [Example 296, (4S)—N5-(4-(1H-1,2,3-triazol-5-yl)pyridin-2-yl)-N7-((R)-1,1,1-trifluoropropan-2-yl)-3,4-dihydro-1,4-methanopyrido[2,3-b][1,4]diazepine-5,7(2H)-dicarboxamide]: < 150% and “A (EC1.5<1 μM)”.
In the same order, the values of `CC(C)NC(=O)c1ccnc(NC(=O)N2c3nc(C(=O)N[C@H](C)C(F)(F)F)ccc3N3CC[C@H]2C3)c1` [Example 297, (4S)—N5-(4-(isopropylcarbamoyl)pyridin-2-yl)-N7-((R)-1,1,1-trifluoropropan-2-yl)-3,4-dihydro-1,4-methanopyrido[2,3-b][1,4]diazepine-5,7(2H)-dicarboxamide] are < 150% and “A (EC1.5<1 μM)”.
